From ChEMBL document CHEMBL1201862, “PubChem BioAssay data set” (2004) come the findings set out here.

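Protocol summary: plate cells (96-well), add compound at 5 concentrations, incubate 48 h, interpolate endpoints linearly. GI50 marks 50% less growth.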 The source made the active and inactive calls. No stated cut-off is given here; in the data, active = GI50 up to about 1.1 µM and inactive = higher.

Usually GI50 stands for the concentration that inhibits growth by half.

What all share (assay): DTP human tumour cell line panel, 48 h
Test [1] concerns COLO 205.
For test [2], the system named is EKVX.
Test [3] deals with LOX IMVI.
Test [4] relates to SN12C.
Test [5] concerns RXF 393.
Test [6] concerns A549.
Test [7] has as its system Malme-3M.
Test [8] deals with NCI-H23.
For test [9], the system named is HOP-62.
For test [10], the system named is MDA-MB-435.
The test system of test [11] is NCI-H460.
Test [12] relates to M14.
Test [13] relates to ACHN.
Test [14] relates to HCT-116.
Test [15] has as its system KM12.
Test [16] relates to SF-295.
For test [17], the system named is SK-MEL-2.
The subject of test [18] is RPMI-8226.
Test [19] concerns NCI-H226.
In test [20] the test system is NCI/ADR-RES.

With `CC(=O)O[C@H]1CC[C@@]2(C)C(=CC[C@@H]3[C@@H]2CC[C@]2(C)C(=O)/C(=C\c4ccccc4)C[C@@H]32)C1`, the GI50 in test [1] was > 100 µM (inactive); in test [2], > 100 µM (inactive); in test [3], > 100 µM (inactive); in test [4] it was > 100 µM (inactive); in test [5], 40.5 µM (inactive); in test [6], > 100 µM (inactive). Besides, the GI50 in test [7] is 89.9 µM (inactive); in test [8], > 100 µM (inactive); in test [9], 94 µM (inactive); in [10] it was > 100 µM (inactive); in [11], > 100 µM (inactive); in [12] it was > 100 µM (inactive). The GI50 was > 100 µM (inactive) in test [13]; 96.2 µM (inactive) in test [14]; > 100 µM (inactive) in test [15]; > 100 µM (inactive) in [16]; > 100 µM (inactive) in test [17]; > 100 µM (inactive) in [18]. Besides, the GI50 in [19] and in [20] was > 100 µM (inactive) in each case.

`COc1cccc2c1C(=O)c1c(O)c3c(c(O)c1C2=O)C[C@@](O)(C(C)=O)C[C@@H]3OC1CC(O)C(O)C(C)O1` (stereo not given in full): the GI50 is 2.05 µM (inactive) in test [1]; 6.67 µM (inactive) in test [2]; 0.59 µM (active) in [3]; 0.675 µM (active) in test [4]; 1.17 µM (inactive) in test [5]; 0.465 µM (active) in [6]. In addition, the concentration for 50% growth inhibition (GI50) in test [7] was 0.000916 µM (active); in test [8] it was 0.942 µM (active); in test [9] it was 0.307 µM (active); in test [10], 8.95 µM (inactive); in test [11], 0.124 µM (active); in test [12], 4.8 µM (inactive). Besides, the GI50 in test [13] is 0.543 µM (active); in test [14], 0.288 µM (active); in test [15] it was 1.55 µM (inactive); in [16], 0.673 µM (active); in test [17], 4.81 µM (inactive); in test [18] it was 0.485 µM (active). Moreover, the GI50 was 0.289 µM (active) in test [19] and 0.36 µM (active) in test [20].

For the compound `NCc1ccc(O)c(O)c1`, the GI50 in test [1], in test [2], in test [3], in test [4], in [5] and in test [6] was > 100 µM (inactive) each time. In addition, the GI50 in [8], in [9], in [10], in test [11], in test [12] and in [13] was > 100 µM (inactive) throughout. The GI50 in test [14], in [15], in test [16], in test [17], in test [18] and in test [19] was > 100 µM (inactive) throughout. For the same compound, in test [20], the GI50 is > 100 µM (inactive).

`C=C[C@@H]1C(CO)=CCC2[C@H]1CCC1C(C)(C)C(=O)CC[C@]21C` (stereo not given in full): the GI50 in test [1], in test [2], in [3], in test [4], in test [5] and in [6] was > 100 µM (inactive) throughout. Also, the GI50 in test [7], in [8], in test [9], in [10], in test [11] and in [12] was > 100 µM (inactive) throughout. Also, the GI50 in test [13], in [14], in [15], in test [16], in test [17] and in test [18] was > 100 µM (inactive) throughout. In addition, the GI50 in [19] and in [20] was > 100 µM (inactive) throughout.

Turning to `O=C(c1ccccc1)C1C(c2ccccc2)N1S(=O)(=O)c1ccccc1` (stereo not given), the GI50 in test [1], in [2], in [3], in test [4], in test [5] and in test [6] was > 100 µM (inactive) in each case. Also, the GI50 in [7], in test [8], in test [9], in [10], in test [12] and in [14] was > 100 µM (inactive) each time. Also, the GI50 in test [15], in test [16], in test [17], in [18], in test [19] and in test [20] was > 100 µM (inactive) in each case.

On to `Nc1nnc2ccc(Cl)cc2[n+]1[O-]`, for which the GI50 was 24.4 µM (inactive) in test [1]; 47.6 µM (inactive) in [2]; 57.5 µM (inactive) in test [3]; > 100 µM (inactive) in test [4]; 29.8 µM (inactive) in test [5]; 54 µM (inactive) in test [7]. The GI50 in test [8] was 30.1 µM (inactive); in test [9] it was > 100 µM (inactive); in test [10], 57 µM (inactive); in [12], 39.1 µM (inactive); in test [13], 62.7 µM (inactive); in [14], 39.7 µM (inactive). In addition, the GI50 is > 100 µM (inactive) in [15]; > 100 µM (inactive) in test [16]; 49.3 µM (inactive) in test [17]; > 100 µM (inactive) in test [18]; > 100 µM (inactive) in test [19]; 40.1 µM (inactive) in [20].

As to `Cc1ccc(NC(=O)S(N)(c2ccc(C)cc2)[N+](=O)[O-])cc1` (stereo not given), the GI50 in [1], in test [3], in test [4], in test [5], in test [7] and in test [8] was > 100 µM (inactive) throughout. In addition, the GI50 in test [9], in [10], in [11], in test [12], in [14] and in [15] was > 100 µM (inactive) in each case. In addition, the GI50 in [16], in [17], in [18], in [19] and in [20] was > 100 µM (inactive) each time.

On to `CCOC(=O)C1Cc2c(cc3c4c(cccc24)N(C(C)=O)C3)N(C)C1` (stereo not given), for which the GI50 in [1] was > 100 µM (inactive); in test [2], 9.59 µM (inactive); in test [3], 6.35 µM (inactive); in [4], 6.04 µM (inactive); in test [5] it was 4.13 µM (inactive); in test [6] it was > 100 µM (inactive). Further, the GI50 in test [7] is 5.18 µM (inactive); in [8] it was > 100 µM (inactive); in test [9], > 100 µM (inactive); in [10], 2.56 µM (inactive); in [11] it was > 100 µM (inactive); in [12] it was 29.9 µM (inactive). The GI50 in test [13] is 7.91 µM (inactive); in test [14] it was 3.67 µM (inactive); in test [15], 4.17 µM (inactive); in test [16] it was 8.26 µM (inactive); in test [17] it was > 100 µM (inactive); in test [18] it was > 100 µM (inactive). In addition, the GI50 in test [19] is 2.9 µM (inactive); in [20] it was 1.64 µM (inactive).

Consider `Cn1c2n/c(=N\c3ccc(Cl)cc3)[n+]3ccc4ccccc4c3c-2c([O-])n1-c1ccccc1`, for which the GI50 in test [1], in test [2], in [3], in test [4], in [5] and in test [7] was > 100 µM (inactive) throughout. For the same compound, the GI50 in test [8], in test [9], in test [10], in test [11], in test [13] and in test [14] was > 100 µM (inactive) each time. Further, the GI50 in test [15] is 42.9 µM (inactive); in [16], > 100 µM (inactive); in [17], > 100 µM (inactive); in test [18], > 100 µM (inactive); in [19], > 100 µM (inactive); in [20], > 100 µM (inactive).

Consider `O=c1c(-c2ccccc2)c(SCCN2CCCCCC2)n(-c2ccccc2)c(=S)n1-c1ccccc1`, for which the GI50 in [1] was 30.4 µM (inactive); in [2], 17.7 µM (inactive); in test [3] it was 50.7 µM (inactive); in [5], 17.2 µM (inactive); in test [7], 12.5 µM (inactive); in [8] it was 68.9 µM (inactive). Further, the GI50 is 46.6 µM (inactive) in test [9]; 33 µM (inactive) in test [10]; 46.8 µM (inactive) in [11]; 54.6 µM (inactive) in test [13]; 27.3 µM (inactive) in test [15]; 83.9 µM (inactive) in [16]. In addition, the figures for the GI50 in test [18], in test [19] and in test [20] were 20.7 µM (inactive), 94.8 µM (inactive) and 68.2 µM (inactive), respectively.
